These results are taken from patent US8853164B2, “Oligopeptide improving differentiation of osteoblasts” (Osstemimplant Co., Ltd., priority 2010, dated 2014).

Assay [1] deals with MG63 cells. The assay is described as follows: Late cell differentiation ability assay (osteopontin production, human ELISA kit). In kind it is cell-based. The conditions noted are these: culture solution at Day 14, relative to PEP111. How it is done:
(§1) The effect of the oligopeptide disclosed herein on osteoblastic differentiation was examined by comparing ALP (alkaline phosphatase) activity as an initial differentiation marker of osteoblasts. In order to compare the differentiation ability of osteoblasts, MG63 cells were distributed to a 24-well plate at a concentration of 1×10^5 cells and incubated for 1 day. Then, the cell was treated with each of the PEP7 oligopeptide disclosed herein, and positive controls BMP-2 and PEP111 in a differentiation culture medium and incubated in a 37° C. CO2 incubator. The medium was replaced with a fresh one at 2-day intervals, the ALP activity was measured at Day 3 and 8 after the cultivation (FIG. 2).
(§2) The effect of the PEP7 oligopeptide on osteoblastic differentiation was examined by comparing the production amount of osteocalcin and osteopontin as a late differentiation marker of osteoblasts. The cultivation was carried out according to the same conditions as described above. At Day 14, the culture solution was harvested, and the amount of osteocalcin and osteopontin therein was measured by using a human ELISA kit (FIGS. 3 and 4).
On the technique in general: In an ELISA, binding on a coated surface is turned into a signal by an enzyme label.

Assay [2] has as its system MG63 cells. Nature of the assay: Calcification ability assay (Alizarin red S staining). It counts as cell-based. The conditions noted are these: Day 14, Alizarin red S staining, relative to PEP111. How it is done:
as §1
In order to examine whether the oligopeptide disclosed herein can successfully induce osteogenic differentiation, extracellular matrix calcification was observed. The cultivation was carried out according to the same conditions as described above. At Day 14 and 21, the culture solution was harvested and subjected to Alizarin red S staining (FIG. 5).

Assay [3] deals with MG63 cells. Nature of the assay: Initial cell differentiation ability assay (ALP activity). The conditions noted are these: differentiation culture medium, measured at Day 3 and 8, relative to PEP111. It counts as cell-based. How it is done: as §1
Assay [4] concerns MG63 cells. The assay is described as follows: Late cell differentiation ability assay (osteocalcin production, human ELISA kit). In kind it is cell-based. The conditions noted are these: culture solution at Day 14, relative to PEP111. The protocol:
as §1, §2

The test system of assay [5] is BMP-specific receptor (BMPR-IA or BMPR-II). Nature of the assay: BMP specific binding assay (ELISA, absorbance at 595 nm). The note with it: PEP7 1 μg/well coated, BMPR-IA or BMPR-II 1 μg/well; relative to PEP111. How it is done:
PEP7 (1 μg/well) was added to an ELISA plate and incubated at 4° C. for 12 hours. After PEP7 was coated on the plate, BMPR-IA or BMPR-II (1 μg/well) was added thereto and reacted at room temperature for 2 hours, to obtain a PEP7-BMP receptor complex. A primary antibody specific for a BMP receptor (0.5 μg BMR-IA, BMPR-II) was added to the complex and reacted at room temperature for 1 hour. A secondary antibody (BMPR-IA or BMPR-II-Fc Ab-HRP) was then added to the resulting mixture and reacted at room temperature for 1 hour. After ABTS was added to the resulting mixture and reacted at room temperature for 30 minutes, an absorbance of the resulting mixture was measure at 595 nm (FIG. 1, wherein PEP111(A) means the sequence whose 9th amino acid was alanine, PEP111(P) means the sequence whose alanine was replaced with proline, and PEP111(T) means the sequence whose alanine was replaced with threonine).

Regarding KIPKPSSVPTELSAISMLYL (PEP7), in the assay with MG63 cells [1], the “osteopontin production, more than PEP111” value is on record as no less than 21%. For the same sequence, the “calcification ability, higher than PEP111” value in the assay on MG63 cells [2] is on record as “about 19%”. In addition, the “ALP (alkaline phosphatase) activity, higher than PEP111” value with MG63 cells [3] turned out to be 20%. Besides, the “osteocalcin production, more than PEP111” value in the assay on MG63 cells [4] is recorded as no less than 14%. In addition, the “binding affinity to a BMP-specific receptor, higher than PEP111” value in assay [5] was “about 23%”.
